From patent publication US8735414B2 (priority 2009, dated 2014)

Columns and labels:
[1] = system: bicistronic HCV replicon (replicon RNA, GenBank Accession No. AJ242654); assay: HCV Replicon Assay; type: cell-based; conditions: Hepatitis C virus, 72 h, read-out: Replicon IC50

Row | SMILES | IC50 [1] | melting point
1 | CCc1cc2c(cc1F)c(C#N)c(-c1ccc(S(=O)(=O)N[C@@H](C)C(F)(F)F)cn1)n2-c1cc(Cl)ccn1 [compound 993, 6-[1-(4-chloropyridin-2-yl)-3-cyano-6-ethyl-5-fluoro-1H-indol-2-yl]-N-[(2S)-1,1,1-trifluoropropan-2-yl]pyridine-3-sulfonamide] | < 500 nM | 185 to 190 °C
2 | CCc1cc2c(cc1F)c(C(N)=O)c(-c1ccc(S(=O)(=O)N[C@@H](C)C(F)(F)F)cn1)n2-c1cnccn1 [compound 994, 6-ethyl-5-fluoro-1-(pyrazin-2-yl)-2-(5-{[(2S)-1,1,1-trifluoropropan-2-yl]sulfamoyl}pyridin-2-yl)-1H-indole-3-carboxamide] | < 500 nM | 120 to 127 °C
3 | CCc1cc2c(cc1F)c(C(N)=O)c(-c1ccc(S(=O)(=O)N[C@@H](C)C(F)(F)F)cn1)n2-c1cccc(F)n1 [compound 995, 6-ethyl-5-fluoro-1-(6-fluoropyridin-2-yl)-2-(5-{[(2S)-1,1,1-trifluoropropan-2-yl]sulfamoyl}pyridin-2-yl)-1H-indole-3-carboxamide] | < 500 nM | 230 to 233 °C
4 | C[C@H](NS(=O)(=O)c1ccc(-c2c(C(N)=O)c3cc(Cl)ccc3n2C2CCC2)nc1)C(F)(F)F [compound 996, 5-chloro-1-cyclobutyl-2-(5-{[(2S)-1,1,1-trifluoropropan-2-yl]sulfamoyl}pyridin-2-yl)-1H-indole-3-carboxamide] | < 500 nM | 244 to 245 °C
5 | C[C@H](NS(=O)(=O)c1ccc(-c2c(C(N)=O)c3cc(F)ccc3n2C2CCC2)nc1)C(F)(F)F [compound 997, 1-cyclobutyl-5-fluoro-2-(5-{[(2S)-1,1,1-trifluoropropan-2-yl]sulfamoyl}pyridin-2-yl)-1H-indole-3-carboxamide] | < 500 nM | 224 to 227 °C
6 | CCc1cc2c(cc1F)c(C(=O)O)c(-c1ccc(NS(=O)(=O)C(C)(C)C)cn1)n2C1CCCCC1 [compound 998, 2-{5-[(tert-butylsulfonyl)amino]pyridin-2-yl}-1-cyclohexyl-6-ethyl-5-fluoro-1H-indole-3-carboxylic acid] | 500 to 2000 nM | 224 to 226 °C
7 | CCc1cc2c(cc1F)c(C(N)=O)c(-c1ccc(NS(=O)(=O)C(C)(C)C)cn1)n2C1CCCCC1 [compound 999, 2-{5-[(tert-butylsulfonyl)amino]pyridin-2-yl}-1-cyclohexyl-6-ethyl-5-fluoro-1H-indole-3-carboxamide] | < 500 nM | 264 to 265 °C
8 | Cc1cc2c(cc1F)c(C#N)c(-c1ccc(S(=O)(=O)N[C@@H](C)C(F)(F)F)cn1)n2-c1sccc1C [compound 1000, 6-[3-cyano-5-fluoro-6-methyl-1-(3-methylthiophen-2-yl)-1H-indol-2-yl]-N-[(2S)-1,1,1-trifluoropropan-2-yl]pyridine-3-sulfonamide] | < 500 nM | 197 to 203.8 °C
9 | Cc1cc2c(cc1F)c(C#N)c(-c1ccc(S(=O)(=O)N[C@@H](C)C(F)(F)F)cn1)n2-c1cc(F)cc(F)n1 [compound 1001, 6-[3-cyano-1-(4,6-difluoropyridin-2-yl)-5-fluoro-6-methyl-1H-indol-2-yl]-N-[(2S)-1,1,1-trifluoropropan-2-yl]pyridine-3-sulfonamide] | < 500 nM | 190.2 to 196.8 °C
10 | CCc1cc2c(cc1F)c(C#N)c(-c1ccc(S(=O)(=O)N[C@@H](C)C(F)(F)F)cn1)n2-c1ccc(F)cc1 [compound 1002, 6-[3-cyano-6-ethyl-5-fluoro-1-(4-fluorophenyl)-1H-indol-2-yl]-N-[(2S)-1,1,1-trifluoropropan-2-yl]pyridine-3-sulfonamide] | < 500 nM | 236 to 243 °C
11 | CCc1cc2c(cc1F)c(C#N)c(-c1ccc(S(=O)(=O)N[C@@H](C)C(F)(F)F)cn1)n2-c1ccc(Cl)cc1 [compound 1003, 6-[1-(4-chlorophenyl)-3-cyano-6-ethyl-5-fluoro-1H-indol-2-yl]-N-[(2S)-1,1,1-trifluoropropan-2-yl]pyridine-3-sulfonamide] | < 500 nM | 279 to 289 °C
12 | CCc1cc2c(cc1F)c(C#N)c(-c1ccc(S(=O)(=O)N[C@@H](C)C(F)(F)F)cn1)n2-c1ccc(OC)cc1 [compound 1005, 6-[3-cyano-6-ethyl-5-fluoro-1-(4-methoxyphenyl)-1H-indol-2-yl]-N-[(2S)-1,1,1-trifluoropropan-2-yl]pyridine-3-sulfonamide] | < 500 nM | 261 to 266 °C
13 | CCc1cc2c(cc1F)c(C#N)c(-c1ccc(S(=O)(=O)N[C@@H](C)C(F)(F)F)cn1)n2-c1ccc(C(F)(F)F)cc1 [compound 1006, 6-{3-cyano-6-ethyl-5-fluoro-1-[4-(trifluoromethyl)phenyl]-1H-indol-2-yl}-N-[(2S)-1,1,1-trifluoropropan-2-yl]pyridine-3-sulfonamide] | 500 to 2000 nM | 276 to 282 °C
14 | CCc1cc2c(cc1F)c(C#N)c(-c1ccc(S(=O)(=O)N[C@@H](C)C(F)(F)F)cn1)n2-c1ccc(C#N)cc1 [compound 1007, 6-[3-cyano-1-(4-cyanophenyl)-6-ethyl-5-fluoro-1H-indol-2-yl]-N-[(2S)-1,1,1-trifluoropropan-2-yl]pyridine-3-sulfonamide] | < 500 nM | 288 to 293 °C
15 | CCc1cc2c(cc1F)c(C#N)c(-c1ccc(S(=O)(=O)N[C@@H](C)C(F)(F)F)cn1)n2-c1cccc(F)c1 [compound 1008, 6-[3-cyano-6-ethyl-5-fluoro-1-(3-fluorophenyl)-1H-indol-2-yl]-N-[(2S)-1,1,1-trifluoropropan-2-yl]pyridine-3-sulfonamide] | < 500 nM | 210 to 214 °C
16 | CCc1cc2c(cc1F)c(C#N)c(-c1ccc(S(=O)(=O)N[C@@H](C)C(F)(F)F)cn1)n2-c1cccc(C)c1 [compound 1009, 6-[3-cyano-6-ethyl-5-fluoro-1-(3-methylphenyl)-1H-indol-2-yl]-N-[(2S)-1,1,1-trifluoropropan-2-yl]pyridine-3-sulfonamide] | < 500 nM | 193 to 198 °C
17 | CCc1cc2c(cc1F)c(C#N)c(-c1ccc(S(=O)(=O)N[C@@H](C)C(F)(F)F)cn1)n2-c1cccc(OC)c1 [compound 1010, 6-[3-cyano-6-ethyl-5-fluoro-1-(3-methoxyphenyl)-1H-indol-2-yl]-N-[(2S)-1,1,1-trifluoropropan-2-yl]pyridine-3-sulfonamide] | < 500 nM | 229 to 233 °C
18 | CCc1cc2c(cc1F)c(C#N)c(-c1ccc(S(=O)(=O)N[C@@H](C)C(F)(F)F)cn1)n2-c1cccc(C(F)(F)F)c1 [compound 1011, 6-{3-cyano-6-ethyl-5-fluoro-1-[3-(trifluoromethyl)phenyl]-1H-indol-2-yl}-N-[(2S)-1,1,1-trifluoropropan-2-yl]pyridine-3-sulfonamide] | 500 to 2000 nM | 240 to 245 °C
19 | CCc1cc2c(cc1F)c(C#N)c(-c1ccc(S(=O)(=O)N[C@@H](C)C(F)(F)F)cn1)n2-c1cccc(C#N)c1 [compound 1012, 6-[3-cyano-1-(3-cyanophenyl)-6-ethyl-5-fluoro-1H-indol-2-yl]-N-[(2S)-1,1,1-trifluoropropan-2-yl]pyridine-3-sulfonamide] | 500 to 2000 nM | 244 to 248 °C
20 | Cc1cc2c(cc1F)c(C#N)c(-c1ccc(S(=O)(=O)N[C@@H](C)C(F)(F)F)cn1)n2-c1ccnc(F)c1 [compound 1013, 6-[3-cyano-5-fluoro-1-(2-fluoropyridin-4-yl)-6-methyl-1H-indol-2-yl]-N-[(2S)-1,1,1-trifluoropropan-2-yl]pyridine-3-sulfonamide] | < 500 nM | 243.4 to 246.9 °C
21 | Cc1cc2c(cc1F)c(C#N)c(-c1ccc(S(=O)(=O)N[C@@H](C)C(F)(F)F)cn1)n2-c1ccncc1F [compound 1014, 6-[3-cyano-5-fluoro-1-(3-fluoropyridin-4-yl)-6-methyl-1H-indol-2-yl]-N-[(2S)-1,1,1-trifluoropropan-2-yl]pyridine-3-sulfonamide] | < 500 nM | 204.2 to 210.5 °C
22 | Cc1cc2c(cc1F)c(C#N)c(-c1ccc(S(=O)(=O)N[C@@H](C)C(F)(F)F)cn1)n2-c1ccc(F)nc1 [compound 1015, 6-[3-cyano-5-fluoro-1-(6-fluoropyridin-3-yl)-6-methyl-1H-indol-2-yl]-N-[(2S)-1,1,1-trifluoropropan-2-yl]pyridine-3-sulfonamide] | < 500 nM | 246.8 to 252.7 °C
23 | Cc1cc2c(cc1F)c(C#N)c(-c1ccc(S(=O)(=O)N[C@@H](C)C(F)(F)F)cn1)n2-c1cnn(C)c1 [compound 1016, 6-[3-cyano-5-fluoro-6-methyl-1-(1-methyl-1H-pyrazol-4-yl)-1H-indol-2-yl]-N-[(2S)-1,1,1-trifluoropropan-2-yl]pyridine-3-sulfonamide] | < 500 nM | 233.7 to 239.3 °C
24 | Cc1cnc(-n2c(-c3ccc(S(=O)(=O)N[C@@H](C)C(F)(F)F)cn3)c(C#N)c3cc(F)c(C)cc32)s1 [compound 1017, 6-[3-cyano-5-fluoro-6-methyl-1-(5-methyl-1,3-thiazol-2-yl)-1H-indol-2-yl]-N-[(2S)-1,1,1-trifluoropropan-2-yl]pyridine-3-sulfonamide] | < 500 nM | 223.1 to 228.1 °C
25 | CCc1cc2c(cc1F)c(C#N)c(-c1ccc(S(=O)(=O)N[C@@H](C)C(F)(F)F)cn1)n2-c1cccc(Cl)c1 [compound 1018, 6-[1-(3-chlorophenyl)-3-cyano-6-ethyl-5-fluoro-1H-indol-2-yl]-N-[(2S)-1,1,1-trifluoropropan-2-yl]pyridine-3-sulfonamide] | < 500 nM | 195 to 198 °C
26 | CCc1cc2c(cc1F)c(C(N)=O)c(-c1ccc(S(=O)(=O)N[C@@H](C)C(F)(F)F)cn1)n2-c1ccc(F)cc1 [compound 1019, 6-ethyl-5-fluoro-1-(4-fluorophenyl)-2-(5-{[(2S)-1,1,1-trifluoropropan-2-yl]sulfamoyl}pyridin-2-yl)-1H-indole-3-carboxamide] | < 500 nM | 210 to 217 °C
